# Experimental data as given in BindingDB's records for doi:10.1021/jm031046g (Novartis Institutes For Biomedical Research, 2004).
# Target: C-C chemokine receptor type 5 (Macaca fascicularis)
# Assay: Antagonistic activity against monkey C-C chemokine receptor type 5.
row,SMILES,IC50
1,"Cc1cc[n+]([O-])c(C)c1C(=O)N1CCC(N2CCC(N(c3ccccc3)c3ccccc3)CC2)CC1 [(2,4-Dimethyl-1-oxy-pyridin-3-yl)-(4-diphenylamino-[1,4']bipiperidinyl-1'-yl)-methanone]",117 nM
2,"Cc1cccc(C)c1C(=O)N1CCC(C)(N2CCC(Nc3ccc4ccn(C)c4c3)CC2)CC1 [(2,6-Dimethyl-phenyl)-[4'-methyl-4-(1-methyl-1H-indol-6-ylamino)-[1,4']bipiperidinyl-1'-yl]-methanone]",43 nM
3,"Cc1cccc(C)c1C(=O)N1CCC(C)(N2CCC(Nc3cccc4ccn(C)c34)CC2)CC1 [(2,6-Dimethyl-phenyl)-[4'-methyl-4-(1-methyl-1H-indol-7-ylamino)-[1,4']bipiperidinyl-1'-yl]-methanone]",147 nM
4,"Cc1cccc(C)c1C(=O)N1CCC(C)(N2CCC(Nc3ccc(C(F)(F)F)cc3)CC2)CC1 [(2,6-Dimethyl-phenyl)-[4'-methyl-4-(4-trifluoromethyl-phenylamino)-[1,4']bipiperidinyl-1'-yl]-methanone]",1.1 nM
5,"Cc1ccccc1C(=O)N1CCC(C)(N2CCC(N(c3ccccc3)c3ccccc3)CC2)CC1 [(4-Diphenylamino-4'-methyl-[1,4']bipiperidinyl-1'-yl)-o-tolyl-methanone]",28.6 nM
6,"Cc1cccc(C)c1C(=O)N1CCC(C)(N2CCC(N(Cc3ccccc3)c3ccc(Br)cc3)CC2)CC1 [{4-[Benzyl-(4-bromo-phenyl)-amino]-4'-methyl-[1,4']bipiperidinyl-1'-yl}-(2,6-dimethyl-phenyl)-methanone]",6.2 nM
